Entries after “also recorded” stand apart in the source; their conditions may differ. Read-outs that look alike come from different tables or passages of the source.
Experiments:
RKO CRBN KO cells [1] = experiment: Cell viability assay (CellTiter-Glo); format: cell-based, human; conditions: 316 pM to 10 μM, 3 days, n = 3 (Figures 5 and 8C, Table S5)
RKO CRBN/VHL dKO cells = experiment: Cell viability assay (CellTiter-Glo); format: cell-based, human; conditions: Homo sapiens, 72 h, read-out: EC50 RKO CRBN/VHL dKO
RKO VHL KO cells = experiment: Cell viability assay (CellTiter-Glo); format: cell-based, human
[2] = test system: HiBiT-BRD4 and HaloTag-CRBN; experiment: NanoBRET live cell ternary complex formation assay; format: cell-based, human
Experimental: NanoBRET ternary complex assays were performed using Promega kits for CRBN (ND2720) and VHL (ND2700) according to manufacturer’s instructions. One day prior to the assay, HEK293 HiBiT-BRD4 (LgBiT Stable) were plated at a density of 800,000 cells/well in a 6-well plate. Cells were allowed to adhere for at least 4 h. Transfection mixtures containing 100 μL Opti-MEM, 6 μL FuGENE HD, and either 2 μg HaloTag-CRBN or HaloTag-VHL were prepared and allowed to incubate for 10 min at room temperature prior to addition to the cells. The next day, cells were trypsinized and resuspended in phenol red-free Opti-MEM Reduced Serum Medium supplemented with 4% FBS. Cells were counted and density was adjusted to 200,000 cells/mL. Cells were divided into two pools: one which received HaloTag NanoBRET 618 Ligand at a final concentration of 100 nM and one which received the same volume of DMSO. Cells were plated on white tissue-culture 96-well plates (100 μL/well) and allowed to adhere overnight. The next day, media was aspirated from the cells and replaced with phenol red-free Opti-MEM Reduced Serum medium supplemented with 4% FBS and a 1:100 dilution of Nano-Glo Vivazine substrate (Promega) and 10 μM MG132. Luminescence was allowed to equilibrate at 37 °C, 5% CO2 for 1 h. During this time, a dilution series of each PROTAC at 10x the desired final concentration was prepared (keeping DMSO constant in all concentrations). 10 μL of this dilution series was added to the plate after luminescence equilibration, and kinetic measurements of donor emission at 460 nm and acceptor emission at 618 nm were collected every 3 min using a ClarioStar plate reader. milliBRET ratios were calculated as (Emission at 618 nm/Emission at 460 nm) × 1000. Donor-contributed background or bleedthrough was corrected for by subtracting milliBRET ratios from no ligand control cells from treated cells. Corrected milliBRET ratios were plotted as a function of time in GraphPad Prism.

RKO CRBN KO cells [3] = experiment: Cell viability assay (CellTiter-Glo); format: cell-based, human; conditions: Homo sapiens, 72 h, 500 pM to 10 μM, 3 days (Figure 10, Table S6)
CRBN = CRBN (Homo sapiens, UniProt Q96SW2); experiment: NanoBRET lytic and live cell target engagement assay; format: binding; set-up: host or cells: HEK293, transient; conditions: for IC50: HEK293 cells with NanoLuc-CRBN, CRBN fluorescent tracer
Chain of CRBN (Q96SW2 whole entry, the tested form may be a part): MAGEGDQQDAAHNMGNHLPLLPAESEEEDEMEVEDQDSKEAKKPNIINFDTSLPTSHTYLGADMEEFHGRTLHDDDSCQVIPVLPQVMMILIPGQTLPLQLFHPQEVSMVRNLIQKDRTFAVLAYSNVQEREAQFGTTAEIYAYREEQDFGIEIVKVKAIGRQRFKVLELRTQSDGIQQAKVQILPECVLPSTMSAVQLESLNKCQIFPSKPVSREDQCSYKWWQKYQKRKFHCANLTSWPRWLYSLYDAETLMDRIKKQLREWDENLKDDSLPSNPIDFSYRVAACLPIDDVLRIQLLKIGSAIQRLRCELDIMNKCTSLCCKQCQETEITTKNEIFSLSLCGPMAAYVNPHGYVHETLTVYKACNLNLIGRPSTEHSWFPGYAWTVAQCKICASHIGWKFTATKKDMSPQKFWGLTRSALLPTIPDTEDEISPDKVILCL
Chain of CRBN (Q16531 whole entry partner, the tested form may be a part): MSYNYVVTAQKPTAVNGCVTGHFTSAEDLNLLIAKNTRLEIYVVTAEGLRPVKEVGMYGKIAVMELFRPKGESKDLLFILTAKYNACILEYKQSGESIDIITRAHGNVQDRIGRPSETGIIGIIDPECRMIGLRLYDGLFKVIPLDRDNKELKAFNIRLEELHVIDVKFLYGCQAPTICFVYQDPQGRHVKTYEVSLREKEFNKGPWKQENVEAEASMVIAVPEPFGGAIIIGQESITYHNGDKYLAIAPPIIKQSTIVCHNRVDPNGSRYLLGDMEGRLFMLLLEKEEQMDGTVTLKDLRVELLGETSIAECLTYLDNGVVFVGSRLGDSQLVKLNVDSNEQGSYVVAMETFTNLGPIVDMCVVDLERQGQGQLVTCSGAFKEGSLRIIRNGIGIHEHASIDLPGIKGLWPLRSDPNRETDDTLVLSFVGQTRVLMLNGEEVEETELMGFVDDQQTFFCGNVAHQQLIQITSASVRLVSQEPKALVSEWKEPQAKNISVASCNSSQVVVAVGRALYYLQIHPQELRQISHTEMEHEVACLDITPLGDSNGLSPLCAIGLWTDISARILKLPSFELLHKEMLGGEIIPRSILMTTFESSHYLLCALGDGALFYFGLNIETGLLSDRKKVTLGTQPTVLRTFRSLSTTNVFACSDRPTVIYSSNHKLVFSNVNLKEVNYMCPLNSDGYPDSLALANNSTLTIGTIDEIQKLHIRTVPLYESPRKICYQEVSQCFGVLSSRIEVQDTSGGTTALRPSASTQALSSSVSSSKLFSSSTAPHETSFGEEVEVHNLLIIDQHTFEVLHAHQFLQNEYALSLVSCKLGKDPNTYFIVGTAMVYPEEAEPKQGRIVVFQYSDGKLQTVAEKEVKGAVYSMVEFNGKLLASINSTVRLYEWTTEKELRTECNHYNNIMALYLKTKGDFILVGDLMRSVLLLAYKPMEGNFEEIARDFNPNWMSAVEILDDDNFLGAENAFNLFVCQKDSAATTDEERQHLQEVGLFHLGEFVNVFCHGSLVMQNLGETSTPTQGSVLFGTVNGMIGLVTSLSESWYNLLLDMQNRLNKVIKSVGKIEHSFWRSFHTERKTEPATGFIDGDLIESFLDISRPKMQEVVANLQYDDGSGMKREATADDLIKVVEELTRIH
Experimental: CRBN (N2910, Promega) and VHL (N2930, Promega) NanoBRET target engagement assays were performed according to manufacturer’s instructions. Transfection complexes were prepared using 1 mL Opti-MEM, 30 μL FuGENE HD, and either 9 μg/mL DDB1 Expression Vector and 1 μg/mL NanoLuc-CRBN fusion vector, or 9 μg/mL Transfection Carrier DNA and 1 μg/mL VHL-NanoLuc fusion vector. Transfection complexes were allowed to form for 20 min at room temperature, then were added to 20 mL of HEK293 cells at density of 200,000 cells/mL. Transfected HEK293 cells were plated in a T75 flask and allowed to express protein overnight. The next day, 85 μL of transfected cells (at 200,000 cells/mL) were replated in white nonbinding 96-well plates for live and lytic target engagement measurements. For live mode, a 100x solution of NanoBRET tracer was prepared using 100% DMSO (50 μM for CRBN live-cell, 100 μM for VHL live-cell). 100x tracer was used to prepare 20× tracer using tracer dilution buffer. PROTACs or test compounds were prepared at 10x final concentrations in Opti-MEM. Five μL of the prepared tracer was then dispensed to each well and the plate was mixed on an orbital shaker at 300 rpm for 15 s. Ten μL of each 10x PROTAC dilution was added to the cells and the plate was mixed again before being incubated at a 37 °C, 5% CO2 incubator for 2 or 5 h (as indicated in each figure). After incubation, a 50 μL of a 3X substrate solution (containing 30 μL NanoBRET Nano-Glo Substrate, 10 μL Extracellular NanoLuc inhibitor, and 4960 μL of Opti-MEM) was added to each well. Plates were incubated for 2–3 min at room temperature, then donor emission (450 nm) and acceptor emission (at 610 nm) values were read using a GloMax Discover. For lytic mode, the following changes were made. […] Plates were incubated in darkness for 5 min after digitonin addition to allow for permeabilization. 50 μL of 3X substrate (30 μL NanoBRET Nano-Glo substrate and 4970 μL Opti-MEM) was added to each well and plates were incubated for 1 min at room temperature before being read on a GloMax Discover as above.

**Q.** What does the source list for `Cc1ncsc1-c1ccc([C@H](C)NC(=O)[C@@H]2C[C@@H](O)CN2C(=O)[C@@H](NC(=O)COCC(C)(COCCOCCOCCNc2cc3c(cc2F)C(=O)N(C2CCC(=O)NC2=O)C3=O)COCCOCCOCCOC(=O)C[C@@H]2N=C(c3ccc(Cl)cc3)c3c(sc(C)c3C)-n3c(C)nnc32)C(C)(C)C)cc1` (mixture of isomers) [AB3067 (27), (17S)-11-((2-(2-(2-((2-(2,6-dioxopiperidin-3-yl)-6-fluoro-1,3-dioxoisoindolin-5-yl)amino)ethoxy)ethoxy)ethoxy)methyl)-17-((2S,4R)-4-hydroxy-2-(((S)-1-(4-(4-methylthiazol-5-yl)phenyl)ethyl)carbamoyl)pyrrolidine-1-carbonyl)-11,18,18-trimethyl-15-oxo-3,6,9,13-tetraoxa-16-azanonadecyl 2-((S)-4-(4-chlorophenyl)-2,3,9-trimethyl-6H-thieno[3,2-f][1,2,4]triazolo[4,3-a][1,4]diazepin-6-yl)acetate]?
**A.** EC50 (RKO CRBN KO cells [1]; listed as 27): 133 nM; EC50 (RKO CRBN KO cells [1]; Homo sapiens, 72 h): 180 nM; EC50 (RKO CRBN/VHL dKO cells; 316 pM to 10 μM, 3 days, n = 3 (Figures 5 and 8C, Table S5)): 988 nM; EC50 (RKO CRBN/VHL dKO cells; 500 pM to 10 μM, 3 days (Figure 10, Table S6)): 818 nM; EC50 (RKO VHL KO cells; 316 pM to 10 μM, 3 days, n = 3 (Figures 5 and 8C, Table S5), listed as 27): 180 nM; EC50 (RKO VHL KO cells; Homo sapiens, 72 h, 316 pM to 10 μM, 3 days, n = 3 (Figures 5 and 8C, Table S5)): 133 nM; EC50 (RKO VHL KO cells; Homo sapiens, 72 h, 500 pM to 10 μM, 3 days (Figure 10, Table S6)): 110 nM; ternary complex formation between BRD4 and CRBN (in words) ([2]; HiBiT-BRD4 HEK293 cells, HaloTag-CRBN, MG132 pretreatment, 0.01, 0.1 and 1 μM, 3.5 h, listed as 27): can engage and form ternary complexes; also recorded: more robust dose–response with both VHL and CRBN than 26; time to plateau of ternary complex signal with CRBN ([2]; NanoBRET, HiBiT-BRD4 HEK293 cells with HaloTag-CRBN): 30 min; EC50 (RKO CRBN KO cells [3]): 82 nM; fold stronger engagement of CRBN over 26, live cell format (CRBN; 27 vs 26): 2.5 fold; IC50 (CRBN; live cells 2 h, read-out: IC50 (Live Cell), Target: CRBN): 624 nM; IC50 (CRBN; lysed with digitonin, read-out: IC50 (Lytic Cell), Target: CRBN): 190 nM

— article PMC11638965, “Leveraging Dual-Ligase Recruitment to Enhance Protein Degradation via a Heterotrivalent Proteolysis Targeting Chimera” (Journal of the American Chemical Society, 2024)
